In patent EP0882029B1, “HETEROCYCLIC DERIVATIVES AS ANTIDIABETIC AND ANTIOBESITY AGENTS” (MERCK & CO., INC., priority 1996, dated 1997):

Tests used:
Human PPARγ2 = molecular target: T1, Human PPARγ2 (Homo sapiens, UniProt P37231); assay: [3H]AD-5075 displacement (receptor binding) assay; settings: gst-fusion receptor, 10 nM [3H2]AD-5075, ~16 h at 4 °C
T1 construct: The full length human cDNA for PPARγ2 and PPARδ were subcloned into the PGEX-2T and PGEX-KT, respectively, expression vector; made in house; host or cells: E. coli (pGEX-2T vector, Pharmacia)
T1 sequence (P37231 1-505): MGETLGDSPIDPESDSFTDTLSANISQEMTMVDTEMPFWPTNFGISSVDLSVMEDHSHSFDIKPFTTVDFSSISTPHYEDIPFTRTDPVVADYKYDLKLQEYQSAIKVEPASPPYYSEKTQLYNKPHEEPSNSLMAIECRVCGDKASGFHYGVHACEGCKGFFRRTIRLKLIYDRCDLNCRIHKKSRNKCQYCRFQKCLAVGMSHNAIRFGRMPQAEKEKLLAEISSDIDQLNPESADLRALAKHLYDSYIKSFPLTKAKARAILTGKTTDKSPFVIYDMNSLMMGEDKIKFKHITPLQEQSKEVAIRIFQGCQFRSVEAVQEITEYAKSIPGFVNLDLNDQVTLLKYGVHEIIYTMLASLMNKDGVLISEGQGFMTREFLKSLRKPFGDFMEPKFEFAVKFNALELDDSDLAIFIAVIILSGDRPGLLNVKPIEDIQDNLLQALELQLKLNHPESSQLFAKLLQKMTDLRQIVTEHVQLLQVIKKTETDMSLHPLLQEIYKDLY
Procedure: Human PPARγ2 and PPARδ, independently, were prepared as gst-fusion proteins in E. coli. The full length human cDNA for PPARγ2 and PPARδ were subcloned into the PGEX-2T and PGEX-KT, respectively, expression vector (Pharmacia). E. coli containing the plasmid were grown, induced, and then harvested by centrifugation. The resuspended pellet was broken in a French press and debris was removed by centrifugation at 12,000Xg. Receptors were purified from the supernatant by affinity chromatography on glutathione sepharose. After application to the column, and 1 wash, receptor was eluted with glutathione. Glycerol was added to stabilize the receptor and aliquots were frozen at -80 °C for later use.
For each assay, an aliquot of receptor (1:1000-1:3000 dilution) was incubated in TEGM (10 mM Tris, pH 7.2, 1 mM EDTA, 10% glycerol, 7 µl/100 ml β-mercaptoethanol, 10 mM Na molybdate, 1 mM dithiothreitol, 5 µg/ml aprotinin, 2 µg/ml leupeptin, 2 µg/ml benzamide and 0.5 mM PMSF) containing 5-10% COS-1 cell cytoplasmic lysate and 10 nM labeled thiazolidinedione ([^3H2]AD-5075, 21 Ci/mmole), ± test compound compound, [^3H2]Example 11, 17 Ci/mmole), ± test compound, respectively. Assays were incubated for ∼16 h at 4 °C in a final volume of 300 µl. […] After centrifugation at 3000 rpm for 10 min at 4 °C, 200 µl of the supernatant fraction was counted in a liquid scintillation counter. […]

Human PPARδ = molecular target: T2, Human PPARδ (Homo sapiens, UniProt Q03181); assay: [3H2]Example 11 displacement (receptor binding) assay; settings: gst-fusion receptor, [3H2]Example 11, ~16 h at 4 °C
T2 construct: The full length human cDNA for PPARγ2 and PPARδ were subcloned into the PGEX-2T and PGEX-KT, respectively, expression vector; made in house; host or cells: E. coli (pGEX-KT vector, Pharmacia)
T2 sequence (Q03181 1-441): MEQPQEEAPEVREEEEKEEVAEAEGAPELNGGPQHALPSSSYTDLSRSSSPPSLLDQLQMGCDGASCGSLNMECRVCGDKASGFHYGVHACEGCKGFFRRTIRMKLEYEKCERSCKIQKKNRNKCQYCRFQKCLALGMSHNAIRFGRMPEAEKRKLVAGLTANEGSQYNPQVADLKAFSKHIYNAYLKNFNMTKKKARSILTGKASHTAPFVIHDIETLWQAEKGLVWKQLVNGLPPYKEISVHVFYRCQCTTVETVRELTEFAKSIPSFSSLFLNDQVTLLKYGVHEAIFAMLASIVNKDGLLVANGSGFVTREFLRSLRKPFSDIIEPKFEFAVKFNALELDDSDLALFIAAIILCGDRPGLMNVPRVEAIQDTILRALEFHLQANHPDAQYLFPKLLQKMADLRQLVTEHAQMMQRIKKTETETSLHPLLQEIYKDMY
Procedure: The hPPARδ binding assay comprises the steps of: • (a) preparing multiple test samples by incubating separate aliquots of the receptor hPPARδ with a test compound in TEGM containing 5-10% COS-1 cell cytoplasmic lysate and 2.5 nM labeled ([^3H2]Compound D, 17 Ci/mmole) for a minimum of 12 hours, and preferably for about 16 hours, at 4 °C, wherein the concentration of the test compound in each test sample is different, and preparing a control sample by incubating a further separate aliquot of the receptor hPPARδ under the same conditions but without the test compound; then • (b) removing unbound ligand by adding dextran/gelatin-coated charcoal to each sample while maintaining the samples at 4 °C and allowing at least 10 minutes to pass, then • (c) subjecting each of the test samples and the control sample from step (b) to centrifugation at 4 °C until the charcoal is pelleted; then • (d) counting a portion of the supernatant fraction of each of the test samples and the control sample from step (c) in a liquid scintillation counter and analyzing the results to determine the IC50 of the test compound.
Human PPARγ2 and PPARδ, independently, were prepared as gst-fusion proteins in E. coli. The full length human cDNA for PPARγ2 and PPARδ were subcloned into the PGEX-2T and PGEX-KT, respectively, expression vector (Pharmacia). […]

Structure (SMILES) | Kd (Human PPARγ2) | Kd (Human PPARδ)
Cc1oc(-c2ccccc2)nc1C(O)COc1ccc(CC2SC(=O)NC2=O)cc1 (centres unmarked) [AD-5075] | 1 nM | –
CCCc1c(OCCC[S+]([O-])c2ccc(CC(=O)OC)cc2Cl)ccc2c(CC)noc12 (centres unmarked) [Example 11, Methyl 3-chloro-4-(3-(3-ethyl-7-propyl-6-benz-[4,5]-isoxazoloxy)-propylthio)phenylacetate S-oxide] | – | 1 nM
